Assay results: publication PMC6089848 (Acta Pharmaceutica Sinica. B, 2018)
Structures can show the parent of a compound that is named as a salt.

Tests used:
[1] = system: pseudotyped EBOV virus (pHIV-EBOVGP-Fluc); type: cell-based, Ebola virus (EBOV); settings: for IC50: read-out: Anti-EBOV IC50
[2] = system: pseudotyped Vesicular Stomatitis Virus (pHIV-VSVGP-Fluc); type: cell-based, Vesicular Stomatitis Virus (VSV); settings: read-out: Anti-VSV IC50
[3] = system: human embryonic kidney (HEK) 293 T cells
[4] = system: pHIV-MARVGP-Fluc virus; set-up: species or system BALB/c mice; settings: mouse, ip
[5] = in vitro; settings: human

Row | SMILES | SI [1] | IC50 [1] [µM] | IC50 [2] [µM] | CC50 [3] [µM] | reduction (bioluminescence), in vivo anti-MARV [4] | CC50 [5] [µM]
1 | COC(=O)CCCC1C2CCCN3CCCC(CN1Cc1ccc(Cl)c(Cl)c1)C23.Cl.Cl (stereo not drawn) [4a, methyl 12N-3′,4′-dichlorobenzyl sophoridinate dihydrochloride] | 8.28 | 2.68 | 7.52 | 22.2 | – | –
2 | COC(=O)CCC[C@@H]1[C@H]2CCCN3CCC[C@H](CN1C(=O)c1ccc(Cl)cc1)[C@@H]23 [4b, Methyl 12N-p-chlorobenzoyl sophoridinate] | 5.12 | 39.1 | > 200 | 200 | – | –
3 | COC(=O)CCCC1C2CCCN3CCCC(CN1S(=O)(=O)c1ccc(Cl)cc1)C23 (stereo not drawn) [4c, Methyl 12N-p-chlorobenzenesulfonyl sophoridinate] | >7.59 | 2.9 | > 22 | > 22 | – | –
4 | O=C(O)CCCC1C2CCCN3CCCC(CN1C(=O)c1ccc(Cl)cc1)C23 (stereo not drawn) [5b, 12N-p-Chlorobenzoyl sophoridinic acid] | – | > 200 | > 200 | > 200 | – | –
5 | O=C(O)CCCC1C2CCCN3CCCC(CN1S(=O)(=O)c1ccc(Cl)cc1)C23 (stereo not drawn) [5c, 12N-p-Chlorobenzenesulfonyl sophoridinic acid] | 17.5 | 11.4 | > 200 | – | – | –
6 | COC(=O)CCCC1C2CCCN3CCCC(CN1Cc1ccc(Cl)cc1)C23.Cl.Cl (stereo not drawn) [7a, Methyl 12N-p-chlorobenzyl matrinate dihydrochloride] | 7.87 | 25.4 | 188 | 200 | – | –
7 | O=C(O)CCC[C@@H]1[C@H]2CCCN3CCC[C@@H](CN1Cc1ccc(Cl)cc1)[C@@H]23 [8a, 12N-p-Chlorobenzyl matrinic acid dihydrochloride] | – | > 200 | > 200 | 200 | – | –
8 | COC(=O)CC1C2CCCN3CCCC(CN1S(=O)(=O)c1ccc(Cl)cc1)C23.Cl (stereo not drawn) [10c, Methyl 12N-p-chlorobenzesulfonyl matrinic acetate hydrochloride] | >7.46 | 26.8 | > 200 | > 200 | – | –
9 | COC(=O)CC1C2CCCN3CCCC(CN1Cc1ccc(Cl)c(Cl)c1)C23.Cl.Cl (stereo not drawn) [10d, Methyl 12N-3′,4′-dichlorobenzyl matrinic acetate dihydrochloride] | 15.3 | 10 | 123 | 153 | – | –
10 | O=C(O)CC1C2CCCN3CCCC(CN1Cc1ccc(Cl)cc1)C23 (stereo not drawn) [11a, 12N-p-Chlorobenzyl matrinic acetic acid] | – | > 200 | > 200 | > 200 | – | –
11 | O=C(O)CC1C2CCCN3CCCC(CN1C(=O)c1ccc(Cl)cc1)C23 (stereo not drawn) [11b, 12N-p-Chlorobenzoyl matrinic acetic acid] | – | > 200 | > 200 | > 200 | – | –
12 | O=C(O)CC1C2CCCN3CCCC(CN1CCCc1cc(Cl)cc(Cl)c1)C23 (stereo not drawn) [15f, 12N-3′,5′-Dichlorohydrocinnamyl matrinic acetic acid] | – | – | – | 83.3 | – | –
13 | CN[C@H]1CC[C@@H](c2ccc(Cl)c(Cl)c2)c2ccccc21 [Sertraline, sertraline] | – | – | – | – | no activity at all | 29.2
